Measurements from publication PMC6749236, “Synthesis of Novel 2-(Het)arylpyrrolidine Derivatives and Evaluation of Their Anticancer and Anti-Biofilm Activity” (Molecules, 2019).
Several values for one entry are separate records, joined by “and”; a condition that tells them apart may be missing. Equal values may be shown once. Marks after values point to notes of the source that are not given here.

Columns and labels:
M-Hela = experiment: Cytotoxicity assay (Cytell Cell Imaging, DAPI/propidium iodide), cancer cell line; assay type: cell-based; conditions: Homo sapiens; M-Hela; tested at 1–100 µM; three independent experiments; read-out: IC50 Cancer Cell Line M-Hela
[1] = system: Vibrio aquamarinus DSM 26054; experiment: Biofilm formation, crystal violet assay; assay type: cell-based; conditions: V. aquamarinus DSM 26054, control = 100%
Method: (§1) Bacterial strains and cultivation conditions. For the detection of biofilms, formation strains Vibrio aquamarinus DSM 26054 and Acinetobacter calcoaceticus VKPM B-10353 were used. These strains form biofilms, making them useful for studying biofilms.
(§2) The bacterial strains Acinetobacter calcoaceticus VKPM B-10353, E. coli MG1655 (pRecA-lux), and E. coli MG1655 (pSoxS-lux) were cultivated in Luria–Bertani (LB) medium under constant shaking to early exponential phase at 37 °C. Cells were used immediately for stress induction tests. One hundred micrograms of ampicillin per milliliter were added into LB medium at cultivation of E. coli MG1655 (pRecA-lux) and E. coli MG1655 (pSoxS-lux). Strain V. aquamarinus DSM 26054 was grown in LB medium supplemented with 3% NaCl.
(§3) The test compounds were dissolved in DMSO to the concentration of 1 × 10^−2 M. Then, they were diluted with ethanol. The control solutions were analogous dilutions of DMSO in ethanol. The tested compounds were also compared with the standard antibiotic azithromycin. Azithromycin was dissolved in DMSO to the concentration of 5 × 10^−3 M and then diluted with deionized water.
(§4) Test system for evaluation of biofilms production. To quantify the formation of biofilms, the crystal violet assay was used, with some modifications. The necessary concentrations of the test compounds were prepared as described above.
(§5) V. aquamarinus DSM 26054 was cultivated for 24 h in LB medium supplemented with 3% NaCl in the Innova 40R shaker incubator (New Brunswick Scientific, USA) at 25 °C and 200 rpm. A. calcoaceticus VKPM B-10353 was cultivated for 24 h in LB medium in the Innova 40R shaker incubator (New Brunswick Scientific, Enfield, CT, USA) at 30 °C and 200 rpm. Then, the suspensions of the daily culture of V. aquamarinus DSM 26054 and A. calcoaceticus VKPM B-10353 were diluted with LB medium supplemented with 3% NaCl to the density of 1 × 10^8 cells/mL.
(§6) The resulting suspension (180 μL) was added to the wells of a polystyrene microplate (Nuova Aptaca, Canelli, Italy). To some of the wells, 20 μL of the test substances at various concentrations were added. Since solvents used could also influence the biofilm formation, 20 μL of the appropriate solvent was added to the other part of the wells at same dilutions (control). Six replicates were done for each treatment and control. The microplate was covered with a lid and wrapped with Parafilm (Bemis Company, Inc., Oshkosh, WI, USA).
(§7) After incubation at 25 °C for 72 h, biofilms were stained. The contents in the wells were removed by means of a dispenser. The wells were then carefully washed three times with 250 μL of sterile saline. The microplates were shaken to remove all non-adherent bacteria. Biofilms were fixed with 200 μL of 96% ethanol for 15 min. After the microplates had dried in air, 200 μL of 0.5% crystal violet was introduced into the wells. After 10 min, the dye was removed. The excess dye was removed by washing with water three times. After the microplates were air-dried, the dye in the wells bound to biofilms was dissolved with 200 μL of 96% ethanol. The extraction level (absorption) of crystal violet by ethanol was measured after 60 minutes at a wavelength of 570 nm using a FLUOstar Omega microplate reader (BMG Labtech, Offenburg, Germany) in optical density units (OD570). The intensity of biofilm formation directly corresponds to the intensity of staining of the contents of the wells with the dye. Biofilm formation was determined by the difference between the mean OD readings obtained in the presence of compounds and the control.
(§8) Each experiment was performed in triplicate. The values were expressed as mean + SD. Student’s t-test was used to compare these values. Differences were considered statistically significant at p < 0.05.

[2] = system: Acinetobacter calcoaceticus VKPM B-10353; experiment: Biofilm formation, crystal violet assay; assay type: cell-based; conditions: A. calcoaceticus VKPM B-10353; for Biofilm Formation: control = 100%
Method: as §1, §2, §3, §4, §5, §6, §7, §8

Chang liver cell line = experiment: Cytotoxicity assay (Cytell Cell Imaging), normal cell line; assay type: cell-based; conditions: Homo sapiens, tested at 1–100 µM, three independent experiments, read-out: IC50 Normal Cell Line Chang Liver
[3] = system: E. coli MG1655 (pSoxS-lux); experiment: Prooxidant activity, bacterial lux-biosensor; assay type: cell-based, Escherichia coli
Source text: (§9) E. coli MG1655 (pRecA-lux) was used for the evaluation of the genotoxicity of the synthesized compounds. The biosensor with the PrecA promotor fixes the presence of the factors causing damage of DNA in a cell. The biosensor E. coli MG1655 (pSoxS-lux) was used for the evaluation of prooxidant activity. The biosensor with the PsoxS promoter fixes the production of superoxide anion and NO [75]. Bioluminescent strains were obtained by the transformation of E. coli MG1655 by hybrid plasmids pRecA-lux, pSoxS-lux. The gene cassette luxCDABE Photorhabdus luminescens under the control PrecA promoters was used in this biosensor. This plasmid was created on the basis of pBR322 and contained a selective marker of ampicillin resistance (Amp gene). The strains were kindly furnished by Manukhov I.V., Federal State Unitary Enterprise “GosNIIGenetika”).
as §2
(§10) Biosensors assay procedure. The detailed protocol of toxicity testing by means of a bacterial lux-biosensors is described in the article.
(§11) Calculation. The criterion of toxic influence was bioluminescence intensity change of the test object in the researched sample in comparison with the control sample.
(§12) The induction factor (I) was defined as the relation of luminescence intensity of a lux-biosensor suspension containing tested sample (Lc) to the luminescence intensity of a lux-biosensor control suspension (Lk): I = Lc/Lk.
(§13) Difference reliability of bioluminescence in experiment from control value was estimated by t-criterion with the help of Excel software. The conclusions about sample toxicity were made at p < 0.05.

[4] = system: Escherichia coli MG1655 (pRecA-lux); experiment: Genotoxicity, bacterial lux-biosensor; assay type: cell-based
Source text: as §9, §2, §10, §11, §12
If at significant differences from control induction factor values were ≤2, the detected genotoxic effect was evaluated as “weak”, if they were in the range from 2 to 10 as “medium”, and above 10 as “strong”. All the experiments were carried out three times independently.
as §13

[5] = concentration range of 10^−9–10^−5 M
[6] = with metabolic activation (+S9), 10^−5 M
[7] = with metabolic activation (+S9), 10^−6 M
[8] = with metabolic activation (+S9), 10^−7 M
[9] = with metabolic activation (+S9), 10^−8 M
[10] = with metabolic activation (+S9), 10^−9 M
[11] = without metabolic activation (-S9), 10^−5 M
[12] = without metabolic activation (-S9), 10^−6 M
[13] = without metabolic activation (-S9), 10^−7 M
[14] = without metabolic activation (-S9), 10^−8 M
[15] = without metabolic activation (-S9), 10^−9 M

| Structure (SMILES) | IC50 (M-Hela) [µM] | melting point | Biofilm Formation ([1]; 1 × 10^−5 M) | Biofilm Formation ([1]; 1 × 10^−6 M) | Biofilm Formation ([1]; 1 × 10^−7 M) | Biofilm Formation ([1]; 1 × 10^−8 M) | Biofilm Formation ([1]; 1 × 10^−9 M) | Biofilm Formation ([2]; 1 × 10^−5 M) | Biofilm Formation ([2]; 1 × 10^−6 M) | Biofilm Formation ([2]; 1 × 10^−7 M) | Biofilm Formation ([2]; 1 × 10^−8 M) | Biofilm Formation ([2]; 1 × 10^−9 M) | IC50 (Chang liver cell line) [µM] | Prooxidant activity (induction factor) ([3]; 10^−5 M) | Prooxidant activity (induction factor) ([3]; 10^−6 M) | Prooxidant activity (induction factor) ([3]; 10^−7 M) | Prooxidant activity (induction factor) ([3]; 10^−8 M) | Prooxidant activity (induction factor) ([3]; 10^−9 M) | Genotoxicity (induction factor, I) [4, 6] | Genotoxicity (induction factor, I) [4, 7] | also measured |
| --- | --- | --- | --- | --- | --- | --- | --- | --- | --- | --- | --- | --- | --- | --- | --- | --- | --- | --- | --- | --- | --- |
| O=C(Nc1ccccc1)N1CCCC1c1ccc(Nc2c([N+](=O)[O-])c(Cl)cc3c2no[n+]3[O-])cc1O (stereo not drawn) [6b, 6-Chloro-4-((3-hydroxy-4-(1-(phenylcarbamoyl)pyrrolidin-2-yl)phenyl)amino)-5-nitrobenzo[c][1,2,5]oxadiazole 1-oxide] | 56 ± 4.1 | 165 to 170 °C (dec.) | 89.12% | 39.02 * % | 26.04 * % | 15.42 * % | 8.21 * % | 119.69 * % | 88.44% | 73.93 * % | 70.79 * % | 90.41% | > 100 | 0.89 ± 0.03 | 1.24 ± 0.11 | 1.04 ± 0.04 | 1.21 ± 0.00 | 1.03 ± 0.10 | 1.23 ± 0.02 | 1.36 ± 0.04 | Biofilm formation with respect to control, over the investigated concentrations ([2]; 1 × 10^−9–1 × 10^−5 M): both suppressing and stimulating; prooxidant activity, in words ([3]; 10^−9–10^−5 M): did not possess prooxidant activity; detected genotoxic effect, class ([4]; concentration of 10^−5 M): weak (induction factor values were ≤2); detected genotoxic effect, class [4, 5]: medium (in the range from 2 to 10); Genotoxicity (induction factor, I) [4, 8]: 1.30 ± 0.02; Genotoxicity (induction factor, I) [4, 9]: 1.31 ± 0.01; Genotoxicity (induction factor, I) [4, 10]: 1.47 ± 0.04; Genotoxicity (induction factor, I) [4, 11]: 1.77 ± 0.04; Genotoxicity (induction factor, I) [4, 12]: 2.15 ± 0.06; Genotoxicity (induction factor, I) [4, 13]: 2.07 ± 0.11; Genotoxicity (induction factor, I) [4, 14]: 2.28 ± 0.12; Genotoxicity (induction factor, I) [4, 15]: 2.34 ± 0.06 |
| COc1ccc(NC(=O)N2CCCC2c2ccc(Nc3c([N+](=O)[O-])c(Cl)cc4c3no[n+]4[O-])cc2O)cc1 (stereo not drawn) [6c, 6-Chloro-4-((3-hydroxy-4-(1-((4-methoxyphenyl)carbamoyl)pyrrolidin-2-yl)phenyl)amino)-5-nitrobenzo[c][1,2,5]oxadiazole 1-oxide] | 26 ± 1.9 | 196 to 202 °C (dec.) | 26.65 * % | 18.28 * % | 9.22% and 9.22 * % | 14.67 * % | 13.54% and 13.54 * % | 82.82% | 79.31 * % | 72.77 * % | 55.74 * % | 93.75% | 62 ± 4.3 | 0.96 ± 0.09 | 1.46 ± 0.03 | 1.68 ± 0.20 | 1.54 ± 0.20 | 1.11 ± 0.03 | 1.35 ± 0.02 | 1.54 ± 0.03 | prooxidant response, in words ([3]; 10^−8–10^−7 M): weak response; genotoxicity under conditions of metabolic activation, in words ([4]; +S9, concentration range of 10^−7–10^−6 M): registered; detected genotoxic effect, class [4, 5]: medium (in the range from 2 to 10); Genotoxicity (induction factor, I) [4, 8]: 1.49 ± 0.02; Genotoxicity (induction factor, I) [4, 9]: 1.37 ± 0.02; Genotoxicity (induction factor, I) [4, 10]: 1.30 ± 0.01; Genotoxicity (induction factor, I) [4, 11]: 2.33 ± 0.04; Genotoxicity (induction factor, I) [4, 12]: 2.82 ± 0.05; Genotoxicity (induction factor, I) [4, 13]: 2.64 ± 0.14; Genotoxicity (induction factor, I) [4, 14]: 2.84 ± 0.02; Genotoxicity (induction factor, I) [4, 15]: 2.67 ± 0.07 |
| O=C(Nc1ccc(Br)cc1)N1CCCC1c1ccc(Nc2c([N+](=O)[O-])c(Cl)cc3c2no[n+]3[O-])cc1O (stereo not drawn) [6d, 4-((4-(1-((4-Bromophenyl)carbamoyl)pyrrolidin-2-yl)-3-hydroxyphenyl)amino)-6-chloro-5-nitrobenzo[c][1,2,5]oxadiazole 1-oxide] | 25.5 ± 1.6 | 166 to 170 °C (dec.) | 63.12% | 24.11 * % | 10.70 * % | 6.46% and 6.46 * % | 67.29 * % | 89.50% | 95.71% | 50.00 * % | 46.95% and 46.95 * % | 79.16 * % | 53 ± 3.8 | 1.10 ± 0.07 | 1.60 ± 0.23 | 1.11 ± 0.01 | 1.11 ± 0.07 | 1.34 ± 0.09 | 0.66 ± 0.04 | 0.71 ± 0.03 | prooxidant response, in words ([3]; 10^−6 M): weak response; DNA-damaging property, in words ([4]; 10^−9–10^−5 M, with and without S9): do not belong to the class of DNA-damaging substances; Genotoxicity (induction factor, I) [4, 8]: 0.71 ± 0.05; Genotoxicity (induction factor, I) [4, 9]: 0.79 ± 0.03; Genotoxicity (induction factor, I) [4, 10]: 0.76 ± 0.05; Genotoxicity (induction factor, I) [4, 11]: 0.60 ± 0.02; Genotoxicity (induction factor, I) [4, 12]: 0.70 ± 0.01; Genotoxicity (induction factor, I) [4, 13]: 0.62 ± 0.03; Genotoxicity (induction factor, I) [4, 14]: 0.70 ± 0.01; Genotoxicity (induction factor, I) [4, 15]: 0.64 ± 0.03 |
